# Measured values: patent US20240325461A1, “COMBINATION THERAPIES FOR THE TREATMENT OF DISEASES” (Research Development Foundation, priority 2023, published 2024)
# How the values were obtained:
# [1] = curative model; treatment started 2 months after ovariectomy; alendronate 80 μg/kg/week s.c.; HI P. goldsteinii by gavage every second day
# [2] = test system: Procollagen Type-1 N Terminal Propeptide (P1NP); experiment: Plasma bone formation marker P1NP (ELISA); type: in vivo, mice; conditions: P. goldsteinii 1.5 OD/ml, 200 μl every second day, given with alendronate 80 μg/kg BW once a week
# Description: Supplementation of P. goldsteinii increases secretion the bone formation marker P1NP, measured at Day 29 (FIG. 18A), or Day 50 (FIG. 18B) after the beginning of the treatment.
# Measuring plasma bone turnover markers: After 5 h fasting (during the treatment), blood samples were collected from the tail of the mice with microvette capillary tubes containing EDTA and plasma was isolated after centrifuging 10000 g for 10 minutes. Plasma samples are collected during sacrifice (at the end of experiment) by taking 500 μl of blood from terminally anesthetized mice in tubes with 10 μl of […] EDTA, 4 μl of aprotinin (1.3%) and 4 μl of DPP-IV (10 mM), followed by centrifugation as described before. N-terminal pro-collagen type 1 extension pro-peptide (PINP) was measured with an ELISA kit (cat no:AC-33F, Immunodiagnostic Systems) according to manufacturers' instructions.
# [3] = test system: ovariectomized female mice; experiment: Intraperitoneal insulin tolerance test, curative model; type: in vivo, C57BL/6J mice; conditions: test on day 52 of administration
# Description: (§1) A curative mouse model for osteoporosis was used for experiments, as follows. 16-week old female C57Bl/6J mice were ovariectomized and left for 2 months to develop the symptoms of osteoporosis and postmenopausal weigh gain and glucose intolerance. Administration of the respective treatment was initiated following these 2 months after the ovariectomies, i.e, once the mice already developed the symptoms of the respective metabolic disease.
# Insulin sensitivity (normalized values) was measured by intraperitoneal insulin tolerance test of ovariectomized female mice, administered with the respective treatment starting 2 months flowing the surgery, considered as day 0. Test is performed on day 52 after staring the administration.
# Ovariectomy: 16 weeks old C57Bl/6J female mice, obtained through Janvier, were be anesthetised with Xylazin/Ketamin (injection of 120 μl of a mixture of 120 mg/kg ketamine and 16 mg/kg xylazine) and shaved below the ribs on the back side. Betadine was be applied to the area for appropriate disinfection. After a 1-2 cm incision through the skin and the muscle layer just below the ribs, the ovary was localized, the fallopian tube ligated with dissolving suture and the ovary removed. The muscle layer was sutured with dissolving suture, the wound closed with staples and disinfected. The same procedure was/will be performed on the other side. […]
# [4] = test system: ovariectomized female mice; experiment: 3-point bending test of femur, curative model; type: in vivo, C57BL/6J mice; conditions: postmortem, day 60
# Source text: as §1
# Ovariectomy: 16 weeks old C57Bl/6J female mice, obtained through Janvier, were be anesthetised with Xylazin/Ketamin (injection of 120 μl of a mixture of 120 mg/kg ketamine and 16 mg/kg xylazine) and shaved below the ribs on the back side. Betadine was be applied to the area for appropriate disinfection. After a 1-2 cm incision through the skin and the muscle layer just below the ribs, the ovary was localized, the fallopian tube ligated with dissolving suture and the ovary removed. The muscle layer was sutured with dissolving suture, the wound closed with staples and disinfected. The same procedure was/will be performed on the other side. A dose of Tamgesic was/will be administered 4 hours after the surgery, and the staples were removed 7 days after the surgery under isoflurane anesthesia. The sham-operated animals underwent the same procedure, without ligating the fallopian tube and the ovary excision. All mice were then kept for additional 2 months after the ovariectomies before starting the respective curative treatments.
# Microbiota transplantation: Lactobacillus gasseri (DSM 20604) and Parabacteroides goldsteinii (DSM 19948) were pushased from DSMZ. Lactobacillus reuteri (PTA-6475) was obtained from ATCC. […] Freshly prepared bacteria were diluted in anaerobic PBS to a final concentration equivalent to 1.5 OD/ml at 600 nm. 200 ul of this suspension was gavaged every second day to ovariectomized mice, starting 2 months post-surgery for 38 day. From day 38 of the gavage until the day od sacrifice at day 60 the concentration was equivalent to 2 OD/ml at 600 nm, of which 200 ul was gavaged.
# The amount administered was 80 μg/kg body weight once per week with subcutaneous injection, in total amount of 100-200 μl per injection.
smiles,measurement,setting,value
NCCCC(O)(P(=O)(O)O)P(=O)(O)O [alendronate],Body weight gain,[1],did not alter the body weight
same,P1NP levels after 50 days of treatment,[2],reduction in P1NP levels
same,Insulin sensitivity (intraperitoneal insulin tolerance test),[3],unaffected
same,"Elastic energy of femurs (femur metaphysis, FIG. 10)",[4],no changes
same,"Elastic energy, femur midshaft",[4],No changes
same,"Stiffness, femur metaphysis",[4],corrected ovariectomy induced decreases in stiffness
same,"Stiffness, femur midshaft",[4],No changes
same,"Ultimate stress, femur metaphysis",[4],not observed to result in a statistically significant increase
same,"Ultimate stress, femur midshaft",[4],not observed to result in improvements
